Four compounds from US7569588B2, “Biphenyl compounds useful as muscarinic receptor antagonists” (Theravance, Inc., priority 2004, dated 2009) can be followed below.

Some results are limits rather than exact numbers.

For assay [1], the system named is ACh-induced bronchoconstriction. The assay can be described thus: Duration of bronchoprotection in guinea pig model of acetylcholine-induced bronchoconstriction. It is filed as in vivo. The settings on record: inhalation, 1.5 hours post-dose. On the procedure: Groups of six male guinea pigs (Duncan-Hartley (HsdPoc:DH) Harlan, Madison, Wisc.) weighing between 250 and 350 g were individually identified by cage cards. Throughout the study animals were allowed access to food and water ad libitum.
Test compounds were administered via inhalation over 10 minutes in a whole-body exposure dosing chamber (R&S Molds, San Carlos, Calif.). The dosing chambers were arranged so that an aerosol was simultaneously delivered to 6 individual chambers from a central manifold. Guinea pigs were exposed to an aerosol of a test compound or vehicle (WFI). […] This was measured gravimetrically by comparing pre-and post-nebulization weights of the filled nebulizer.
The bronchoprotective effects of test compounds administered via inhalation were evaluated using whole body plethysmography at 1.5, 24, 48 and 72 hours post-dose.
Forty-five minutes prior to the start of the pulmonary evaluation, each guinea pig was anesthetized with an intramuscular injection of ketamine (43.75 mg/kg), xylazine (3.50 mg/kg) and acepromazine (1.05 mg/kg). […] The depth of anesthesia was monitored and adjusted if the animal responded to pinching of its paw or if the respiration rate was greater than 100 breaths/minute. […]
Starting this program initiated the experimental protocol and data collection. […] By integrating this signal over time, a measurement offlow was calculated for each breath. […]

Assay [2] has as its target T1, hM2 receptor (CHO-K1 cells) (Homo sapiens, UniProt P08172).
T1 construct: expressed in transfected cells; host or cells: CHO-K1 cells
T1 sequence (P08172 1-466): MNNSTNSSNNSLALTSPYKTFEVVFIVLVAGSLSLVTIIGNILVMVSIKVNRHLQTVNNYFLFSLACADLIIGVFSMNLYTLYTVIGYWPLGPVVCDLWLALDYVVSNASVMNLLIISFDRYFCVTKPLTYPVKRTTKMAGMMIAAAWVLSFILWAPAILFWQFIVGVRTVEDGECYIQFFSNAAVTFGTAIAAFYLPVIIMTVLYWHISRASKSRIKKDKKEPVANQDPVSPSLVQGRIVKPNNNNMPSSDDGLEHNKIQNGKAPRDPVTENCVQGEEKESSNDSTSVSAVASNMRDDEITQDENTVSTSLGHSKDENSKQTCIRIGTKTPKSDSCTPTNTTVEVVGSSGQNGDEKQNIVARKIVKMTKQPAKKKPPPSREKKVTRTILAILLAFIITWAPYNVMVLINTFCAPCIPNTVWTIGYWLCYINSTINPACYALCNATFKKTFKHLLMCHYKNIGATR
As to the kind of experiment: Blockade of agonist-mediated (oxotremorine) inhibition of forskolin-mediated cAMP accumulation. The assay is classed as cell-based. The settings on record: CHO-K1 cells expressing the hM2 receptor. On the procedure: A. Blockade of Agonist-Mediated Inhibition of cAMP Accumulation
In this assay, the functional potency of a test compound was determined by measuring the ability of the test compound to block oxotremorine-inhibition of forskolin-mediated cAMP accumulation in CHO—K1 cells expressing the hM2 receptor.
cAMP assays were performed in a radioimmunoassay format using the Flashplate Adenylyl Cyclase Activation Assay System with ^1251-cAMP (NEN SMP004B, PerkinElmer Life Sciences Inc., Boston, Mass.), according to the manufacturer's instructions.
Cells were rinsed once with dPBS and lifted with Trypsin-EDTA solution (0.05% trypsin/0.53 mM EDTA) as described in the Cell Culture and Membrane Preparation section above. […] The cell pellet was then re-suspended in 10 mL dPBS, and the cells were counted with a Coulter Z1 Dual Particle Counter (Beckman Coulter, Fullerton, Calif.). […]
Reactions were incubated for 10 minutes at 37° C. and stopped by addition of 100 μL ice-cold detection buffer. Plates were sealed, incubated overnight at room temperature and counted the next morning on a PerkinElmer TopCount liquid scintillation counter (PerkinElmer Inc., Wellesley, Mass.). The amount of cAMP produced (pmol/well) was calculated based on the counts observed for the samples and cAMP standards, as described in the manufacturer's user manual. […]
A general note: Cyclic AMP is a second messenger, typically raised through Gs and lowered through Gi signalling.

The target in another assay is T2, hM3 receptor (CHO cells) (Homo sapiens, UniProt P20309).
T2 construct: expressed in transfected cells
As to the kind of experiment: Blockade of agonist-mediated calcium release via FLIPR assay. It is filed as cell-based. The settings on record: CHO cells stably expressing the hM3 receptor. An excerpt:
C. Blockade of Agonist-Mediated Calcium Release via FLIPR Assays
Muscarinic receptor subtypes (M1, M3 and M5 receptors), which couple to Gq proteins, activate the phospholipase C (PLC) pathway upon agonist binding to the receptor. As a result, activated PLC hydrolyzes phosphatyl inositol diphosphate (PIP2) to diacylglycerol (DAG) and phosphatidyl-1,4,5-triphosphate (IP3), which in turn generates calcium release from intracellular stores, i.e., endoplasmic and sarcoplasmic reticulum. […] This fluorescence event was measured in real time by the FLIPR, which detected the change in fluorescence from a monolayer of cells cloned with human M1 and M3, and chimpanzee M5 receptors. Antagonist potency was determined by the ability of antagonists to inhibit agonist-mediated increases in intracellular calcium. […]
To determine antagonist potency, the dose-dependent stimulation of intracellular Ca^2+release for oxotremorine was first determined so that antagonist potency can later be measured against oxotremorine stimulation at an EC90 concentration. […] Baseline was determined by measuring the change in fluorescence for 10 seconds prior to addition of agonist. Following agonist stimulation, the FLIPR continuously measured the change of fluorescence every 0.5 to 1 second for 1.5 minutes to capture the maximum fluorescence change. […]

In assay [3] the target is T3, hM2 receptor (CHO-K1 cell membranes) (Homo sapiens, UniProt P08172).
T3 construct: expressed in transfected cells; host or cells: membranes of CHO (CHO-K1) cells stably expressing the cloned human receptor
T3 sequence (P08172 1-466): T1 sequence (P08172 1-466)
The assay can be described thus: Blockade of agonist-mediated (oxotremorine-stimulated) [35S]GTPγS binding. It is filed as biochemical. The note with it: CHO-K1 cells expressing the hM2 receptor. As for the experimental part:
B. Blockade of Agonist-Mediated [^35S]GTPγS Binding
In a second functional assay, the functional potency of test compounds can be determined by measuring the ability of the compounds to block oxotremorine-stimulated [^35S]GTPγS binding in CHO—K1 cells expressing the hM2 receptor.
At the time of use, frozen membranes were thawed and then diluted in assay buffer with a final target tissue concentration of 5-10 μg protein per well. The membranes were briefly homogenized using a Polytron PT-2 100 tissue disrupter and then added to the assay plates.
The EC90 value (effective concentration for 90% maximal response) for stimulation of[^35S]GTPγS binding by the agonist oxotremorine was determined in each experiment.
To determine the ability of a test compound to inhibit oxotremorine-stimulated [^35S]GTPγS binding, the following was added to each well of 96 well plates: 25 μL of assay buffer with [^35S]GTPγS (0.4nM), 25 μL of oxotremorine(ECgo) and GDP (3 μM), 25 μL of diluted test compound and 25 μL CHO cell membranes expressing the hM2 receptor. […] Microscint-20 scintillation liquid (50 μL) was added to each well, and each plate was sealed and radioactivity counted on a topcounter (PerkinElmer). Data were analyzed by nonlinear regression analysis with the GraphPad Prism Software package (GraphPad Software, Inc., San Diego, Calif.) using the non-linear regression, one-site competition equation. […]
In general terms: GTPγS is a poorly hydrolysed GTP analogue; its binding reports G protein activation.

Assay [4] relates to pilocarpine-evoked salivation. As to the kind of experiment: Inhalation guinea pig salivation assay (pilocarpine-evoked salivation). The assay is classed as in vivo.
Description: Guinea pigs (Charles River, Wilmington, Mass.) weighing 200-350 g were acclimated to the in-house guinea pig colony for at least 3 days following arrival. Test compound or vehicle were dosed via inhalation (IH) over a 10 minute time period in a pie shaped dosing chamber (R&S Molds, San Carlos, Calif.). Test solutions were dissolved in sterile water and delivered using a nebulizer filled with 5.0 mL of dosing solution. Guinea pigs were restrained in the inhalation chamber for 30 minutes. During this time, guinea pigs were restricted to an area of approximately 110 sq. cm. This space was adequate for the animals to turn freely, reposition themselves, and allow for grooming. […] Upon completion of nebulization, guinea pigs were evaluated at 1.5, 6, 12, 24, 48, or 72 hrs after treatment.
Guinea pigs were anesthetized one hour before testing with an intramuscular (IM) injection of a mixture of ketamine 43.75 mg/kg, xylazine 3.5 mg/kg, and acepromazine 1.05 mg/kg at an 0.88 mL/kg volume. […] Saliva was collected for 10 minutes, at which point the gauze pad was weighed and the difference in weight recorded to determine the amount of accumulated saliva (in mg). The mean amount of saliva collected for animals receiving the vehicle and each dose of test compound was calculated. […] Results were calculated using result means (n=3 or greater). […]
The subject of assay [5] is MCh-induced depressor responses. The assay can be described thus: Methacholine-induced depressor responses in conscious guinea pigs. The note with it: guinea pig, inhalation. It is filed as in vivo.
Excerpt: Healthy, adult, male Sprague-Dawley guinea pigs (Harlan, Indianapolis, Ind.), weighing between 200 and 300 g were used in these studies. Under isoflurane anesthesia (to effect), animals were instrumented with common carotid artery and jugular vein catheters (PE-50 tubing). The catheters were exteriorized utilizing a subcutaneous tunnel to the subscapular area. All surgical incisions were sutured with 4-0 Ethicon Silk and the catheters locked with heparin (1000 units/mL). Each animal was administered saline (3 mL, SC) at the end of surgery as well as buprenorphine (0.05 mg/kg, IM). Animals were allowed to recover on a heating pad before being returned to their holding rooms.
Approximately 18 to 20 hours following surgery, the animals were weighed and the carotid artery catheter on each animal was connected to a transducer for recording arterial pressure. Arterial pressure and heart rate was recorded using a Biopac MP-100 Acquisition System. Animals were allowed to acclimate and stabilize for a period of 20 minutes.
Each animal was challenged with MCh (0.3 mg/kg, IV) administered through the jugular venous line and the cardiovascular response was monitored for 10 minutes. […] At 1.5 and 24 hours post-dosing, the animals were re-challenged with MCh (0.3 mg/kg, IV) and the hemodynamic response was determined. […]

T2 sequence (P20309 whole entry): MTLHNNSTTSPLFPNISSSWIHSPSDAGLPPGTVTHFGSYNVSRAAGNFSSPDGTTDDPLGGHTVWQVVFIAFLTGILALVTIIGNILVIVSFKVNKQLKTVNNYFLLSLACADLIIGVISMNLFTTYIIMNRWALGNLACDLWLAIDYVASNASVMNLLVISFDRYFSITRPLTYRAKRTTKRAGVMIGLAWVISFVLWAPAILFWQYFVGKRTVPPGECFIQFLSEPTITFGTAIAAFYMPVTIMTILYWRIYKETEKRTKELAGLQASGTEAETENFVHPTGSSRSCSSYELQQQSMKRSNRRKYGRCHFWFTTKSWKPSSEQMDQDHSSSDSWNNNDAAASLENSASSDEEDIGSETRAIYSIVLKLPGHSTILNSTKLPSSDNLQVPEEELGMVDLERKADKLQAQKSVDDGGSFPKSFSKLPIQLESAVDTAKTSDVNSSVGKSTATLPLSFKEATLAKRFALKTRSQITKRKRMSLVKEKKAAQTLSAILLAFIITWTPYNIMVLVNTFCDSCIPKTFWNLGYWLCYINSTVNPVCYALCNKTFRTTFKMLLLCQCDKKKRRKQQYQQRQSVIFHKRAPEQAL

Consider `CN(CCCCCNC(=O)CCN1CCC(OC(=O)Nc2ccccc2-c2ccccc2)CC1)Cc1ccc(O)cc1` [Example 3, Biphenyl-2-ylcarbamic Acid 1-(2-{5-[(4-Hydroxybenzyl)methylamino]pentylcarbamoyl}ethyl)piperidin-4-yl Ester], for which, in assay [1], the “PD2(50) for ACh-induced bronchoconstriction” value is listed as “less than 200 μg/mL”. Besides, the Ki (as a rule, the equilibrium dissociation constant of an inhibitor or competing ligand from its target) in assay [2] is less than 10 nM.
Turning to `O=C(CCN1CCC(OC(=O)Nc2ccccc2-c2ccccc2)CC1)NCCCCCNCc1ccc(O)cc1` [Example 2, Biphenyl-2-ylcarbamic Acid 1-{2-[5-(4-Hydroxybenzylamino)pentylcarbamoyl]ethyl}piperidin-4-yl Ester], the inhibition constant Ki (at hM3 receptor (CHO cells); in assay [3]) was less than 10 nM throughout.
Consider `N[C@@H](Cc1ccc(O)cc1)C(=O)NCCCCCNC(=O)CCN1CCC(OC(=O)Nc2ccccc2-c2ccccc2)CC1` [Example 6, Biphenyl-2-ylcarbamic Acid 1-(2-{5-[(S)-2-Amino-3-(4-Hydroxyphenyl)propionylamino]pentylcarbamoyl}ethyl)piperidin-4-yl Ester], for which the “apparent lung selectivity index (ratio of anti-sialagogue ID50 to bronchoprotective ID50)” value in assay [4] is recorded as “greater than 5”.
Regarding `O=C(CCN1CCC(OC(=O)Nc2ccccc2-c2ccccc2)CC1)NCCCCCNCCc1ccc(O)cc1` [Example 1, Biphenyl-2-ylcarbamic Acid 1-(2-{5-[2-(4-Hydroxyphenyl)ethylamino]pentylcarbamoyl}ethyl)piperidin-4-yl Ester], in assay [5], the “apparent lung-selectivity index (ratio of anti-depressor ID50 to bronchoprotective ID50)” value was “greater than 5”.
